Results reported in patent publication US12521415B2, “Accelerating repair of mucosal injury using gold(III) compounds” (University of Kentucky Research Foundation, priority 2020, dated 2026).

Assay: Toxicity (weight change) in AuPhos-treated mice over time
Type: in vivo, mouse
From the text: FIGS. 8A-8J present properties of AuPhos. FIG. 8A includes a chemical structure of AuPhos. FIG. 8B includes extrapolated AuPhos-induced OCR (complex I) in liver mitochondria. […] FIG. 8E provides weight change in AuPhos-treated mice over time. FIG. 8F presents stability of AuPhos in PBS and DMEM. FIG. 8G presents stability of AuPhos in PBS and DMEM. FIG. 8H includes an AuPhos-induced Heat map of DEG (left Panel), obtained using log 2(Fold Change) and p-Value <0.00001 thresholds in MDA-MB-231(107) cells (n=2), and the top six hits of KEGG analysis (right panel). FIG. 8I presents biodistribution and pharmacokinetics of AuPhos in different tissues; Colon, Small bowel, Lung, Kidney, Spleen, Liver, Heart and Blood after single dose (oral, 25 mg/kg) administration of AuPhos at 6 h, 12 h and 24 h. FIG. 8J presents biodistribution and pharmacokinetics of AuPhos in different tissues stool after single dose (oral, 25 mg/kg) administration of AuPhos at 6 h, 12 h and 24 h.
This observation was mitochondrial complex I-driven when different substrates, i.e. pyruvate and succinate, were used to measure the OCR. Transcriptomics was used to study global changes in mRNA in response to a 12 h exposure of AuPhos to MDA-MB-231 cells (FIG. 8H).

Structure (SMILES): [Cl][Au]1([c]2ccccc2Cc2ccccn2)[P](c2ccccc2)(c2ccccc2)c2ccccc2[P]1(c1ccccc1)c1ccccc1 [AuPhos]
- liver toxicity (mice, data not shown): not observed
- toxicity in mice (over 20 days): no toxicity
